Values quoted from earlier work in patent publication US10328118B2, “High purity oritavancin and method of producing same” (priority 2014, dated 2019).
Read-outs that look alike come from different tables or passages of the source.

“red man” syndrome (histamine-like response) during infusion (subjects; in vivo) | Compound | “red man” syndrome (histamine-like response) during infusion (subjects; rapid infusion into subjects) | teratogenicity (animal models; animal models) | teratogenicity (animal models; in vivo)
 | CN[C@H](CC(C)C)C(=O)N[C@H]1C(=O)N[C@@H](CC(N)=O)C(=O)N[C@H]2C(=O)N[C@H]3C(=O)N[C@H](C(=O)N[C@H](C(=O)O)c4cc(O)cc(O)c4-c4cc3ccc4O)[C@H](O)c3ccc(c(Cl)c3)Oc3cc2cc(c3O[C@@H]2O[C@H](CO)[C@@H](O)[C@H](O)[C@H]2O[C@H]2C[C@](C)(N)[C@H](O)[C@H](C)O2)Oc2ccc(cc2Cl)[C@H]1O [vancomycin] | associated with the “red man” syndrome | non-teratogenic | 
not seen | teicoplanin |  |  | non-teratogenic
